The conditions of the series: Crystal; Phase equilibration.

Numbers after ± are expanded uncertainties.

As for `O=C([O-])CCP(=O)(O)c1ccccc1.[Na+]` [monosodium 3-(hydroxyphenylphosphinyl)propanoate], the Normal melting temperature was 231 ± 0.7 °C.

The values are drawn from the NIST ThermoML archive (doi:10.1016/j.fluid.2013.02.001).
